Test results reported in PubChem BioAssay (NCI).
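Values below derive from 48-hour exposures of cells grown in 96-well plates, with endpoints linearly interpolated between the two concentrations bracketing the appropriate inhibition level. GI50: concentration for 50% inhibition of growth. TGI: total growth inhibition.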

Assays:
Assay in all cases: NCI-60 cell line screen, 48 h
[1] = system: OVCAR-3 ovarian
[2] = system: XF 498 CNS
[3] = system: HCC-2998 colon
[4] = system: MDA-MB-435
[5] = system: MDA-MB-231 breast
[6] = system: BT-549 breast
[7] = system: PC-3 prostate
[8] = system: ACHN renal
[9] = system: 786-0 renal
[10] = system: LXFL 529 NSCLC
[11] = system: HS 578T breast

Structure (SMILES) | TGI [1] | TGI [2] | TGI [3] | TGI [4] | TGI [5] | TGI [6] | TGI [7] | TGI [8] | TGI [9] | TGI [10] | also measured
Nc1ncnc2c1ncn2C1CCC(CO)O1 (configuration not stated) | > 100 µM | > 100 µM | > 77.4 µM |  |  |  |  |  |  |  | 
CCOP(=O)(OCC)C(Cc1ccc(OC)c(OC)c1)N=C(c1ccccc1)c1ccccc1 (configuration not stated) | > 100 µM |  | 52.4 µM | > 100 µM | > 100 µM | > 100 µM | > 100 µM | > 100 µM |  |  | 
CC(C)=CCc1c(C)cc2cc3c(c(O)c2c1O)C(O)=CC(=O)C3(CC=C(C)C)C/C=C(\C)CO (configuration not stated) | 76.3 µM | 53.5 µM | 88.6 µM |  |  |  |  |  |  |  | 
CC[C@@H](C(=O)[C@@H](C)[C@@H](O)[C@H](C)CCc1ccc(C)c(O)c1C(=O)O)[C@H]1O[C@](CC)([C@H]2CC[C@](O)(CC)[C@H](C)O2)C[C@@H]1C | 10.9 µM | 3.41 µM | 11.4 µM |  |  |  |  | 13.2 µM | 13.5 µM | 4.94 µM | 
COc1c2c(cc3c(CCc4ccccc4)cc(=O)oc13)CCC(C)(C)O2 | > 100 µM |  | > 100 µM |  |  |  |  | > 100 µM |  | > 100 µM | 
CCOc1ccc2c(ccc(/C=C\c3cc(C)c4cccnc4c3O)[n+]2C)c1 | 2 µM |  | > 100 µM | 13.3 µM | 0.632 µM | 38.1 µM | 6.14 µM | 21.4 µM | 29.3 µM | 14 µM | TGI [11]: > 100 µM
O=C1CN2C(Cl)(Cl)C2(c2ccccc2)c2cc(Cl)ccc2N1CC(F)(F)F (configuration not stated) | 39 µM |  | 35.9 µM |  |  |  |  | > 100 µM |  |  | 
CCOc1ccc(/C=C/[N+](=O)[O-])cc1 | 15.8 µM |  | 3.94 µM | 13.7 µM | 20.9 µM |  | 33.7 µM | 24.3 µM |  |  | GI50 [4]: 3.18 µM; GI50 [11]: 35.3 µM; TGI [11]: > 100 µM; GI50 [5]: 7.91 µM; GI50 [7]: 12.4 µM; GI50 [8]: 12 µM; GI50 [1]: 4.53 µM; GI50 [3]: 1.82 µM
[C-]#[O+].[Cl][Sn]([Cl])[Cl].[Cl][Sn]([Cl])[Cl].[Pt].c1ccncc1 | > 100 µM |  | > 100 µM |  |  |  |  |  |  |  | 
O=C(O)c1cc(=O)[nH]c(=S)[nH]1 | > 100 µM |  | > 100 µM | > 100 µM | > 100 µM | > 100 µM | > 100 µM | > 100 µM | > 100 µM |  | TGI [11]: > 100 µM
O=C(Nc1nc2ccc([N+](=O)[O-])cc2[n+]([O-])n1)C(F)(F)F |  |  | > 100 µM | 32 µM | > 100 µM | > 100 µM | > 100 µM | 90.8 µM | > 100 µM |  | 
CC(C)=CC(=O)OC1C2C(C)C(=O)OC2C(O)C(C)C2C=CC(=O)C21C (configuration not stated) | 6.92 µM | 9.77 µM | 10.1 µM |  |  |  |  |  |  |  | 
CCCCN(CCCC)CCCCNc1c(C)cnc2cc(Cl)ccc12 | > 100 µM | 28.6 µM | 29.4 µM |  |  |  |  | > 100 µM | 32.1 µM | > 100 µM | 
